Experimental data: patent US9096550B2, “Bryostatin analogues and methods of making and using thereof” (UNIVERSITY OF UTAH RESEARCH FOUNDATION, priority 2008, dated 2015)
Read-outs that look alike come from different tables or passages of the source.

Experiments:
Assay type in all cases: cell-based, human
cFos = assay: Induction of cFos in LNCaP cells (western blot); details: LNCaP cells treated 2, 5 or 8 hrs
Method: FIGS. 14A-C show the induction of cFos and phosphorylation of PKC at Y311 in LNCaP cells. […] The proteins from the lysates were separated by 10% SDS-PAGE, electroblotted to nitrocellulose membranes and probed with anti-cFos primary and anti-rabbit secondary antibodies, followed by ECL visualization. Data are representative of four independent experiments. […] The cFos signal was normalized to the β-actin signal to correct for loading and the response induced by 100 nM PMA at 2 hrs was taken as 100%. Data represent the means+SEM of four independent experiments. […] Data represent the means+SEM of three independent experiments.
LNCaP cells treated for 48 hours with the different drugs or with DMSO as control were washed and re-suspended in phosphate buffered saline. Yo-Pro-1 (Invitrogen, Carlsbad, Calif.) was added to a final concentration of 1 μM and the cells were incubated for 20 min at 4° C. in the dark. 7-Aminoactinomycin D (7-AAD) (Invitrogen, Carlsbad, Calif.) was then added at a 5 μg/mL final concentration 10 minutes before analysis by flow cytometry using the FACSCalibur system (Becton Dickinson, Mountain View, Calif.). Data were analyzed with FlowJo 7 (Tree Star Inc., Ashland, Oreg.). The Yo-Pro-1 positive cells were considered apoptotic and were expressed as % of total cells. […]

U937 cells = assay: Inhibition of U937 cell proliferation; details: for inhibition of U937 cell proliferation: compound alone
Method: U937 cells (Sundstrom, C.; Nilsson, K.: Establishment and characterization of a human histiocytic lymphoma cell line (U-937). Int. J. Cancer 1976, 17: 565-577.), purchased from ATCC (Manassas, Va.) and cultured in RPMI-1640 medium supplemented with 10% FBS (ATCC, Manassas, Va.), were plated in 35 mm dishes at a density of 2×10^5 living cells/ml and treated with different concentrations of the drugs or DMSO. After 72 hours, the number of cells in the supernatant (non-attached cells) and the number of attached cells (after trypsinization) were counted using a Beckman particle counter (Beckman Coulter Inc., Fullerton, Calif.). The number of attached cells is expressed as percent of total cells (FIGS. 8-10).
(§1) U937 cells were treated with PMA (0.1-100 nM), bryostatin 1 (1-1000 nM), the indicated compound (1-1000 nM), 10 nM PMA with different concentrations of bryostatin 1 (1-1000 nM) or 10 nM PMA with different concentrations of indicated compound (1-1000 nM). The number of attached and non-attached cells was counted and the number of total cells was expressed as % of control. The bars and error bars represent the average and the standard error of the mean of five independent experiments (FIGS. 8-10).
(§2) U937 cells (Sundstrom and Nilsson, 1976), purchased from ATCC (Manassas, Va.) and cultured in RPMI-1640 medium supplemented with 10% FBS (ATCC, Manassas, Va.), were plated in 35 mm dishes at a density of 1×10^5 living cells/ml and treated with different concentrations of the drugs or DMSO. After 72 hours, the number of cells in the supernatant (non-attached cells) and the number of attached cells (after trypsinization) were counted using a particle counter. The number of attached cells is expressed as percent of total cells.
U937 cells were treated with PMA (0.01-100 nM), bryostatin1 (0.1-1000 nM), analogue 12 (0.1-1000 nM), 10 nM PMA with different concentrations of bryostatin 1 (0.1-1000 nM) or 10 nM PMA with different concentrations of analogue 12 (0.1-1000 nM). The numbers of attached and non-attached cells were counted and the number of total cells was expressed as % of control. The bars and error bars represent the average and the standard error of the mean of at least three independent experiments.
as §2, with “U-937” for “U937”
as §1, with “U-937” for “U937”, “at least three” for “five”, “experiments.” for “experiments (FIGS. 8-10).”

LNCaP cells = assay: Early morphology change (cell flattening) of LNCaP cells by Incucyte imaging
Method: FIGS. 13A and 13B show the proliferation and morphology of LNCaP cells detected by Incucyte. LNCaP cells were treated with DMSO as control, 300 nM PMA, 1000 nM bryostatin 1 or the bryologue MERLE 21, or with 300 nM PMA in combination with 1000 nM bryostatin 1 or the bryologue MERLE 21. Time-elapsed images were taken by the Incucyte imaging system every hour. […] The arrow indicates the time of treatment. Data are representative of three independent experiments.
The extent of confluency of LNCaP cells (from ATCC, Manassas, Va.) and the morphological changes after treatment were followed in real time using Incucyte (Essen Instruments, Ann Arbor, Mich.). […] The confluency of the cells was calculated by the instrument's program. The proliferation of LNCaP cells was expressed as the difference in cell confluency before and after treatment.
The above measurements were determined at fixed times after compound addition, 80 hr for proliferation and 48 hr for apoptosis. Cell growth was monitored continuously using an Incucyte live cell imaging system. […] At early times (0-6 hrs after treatment), the imaging also detected a transient response, reflecting a change in cell morphology induced by the compounds, superimposed on the slower change in the signal reflecting proliferation. […]

| Compound | time course of cFos induction (cFos) | inhibition of U937 cell proliferation (U937 cells) | persistence of cell flattening (early morphological response) (LNCaP cells) | block of PMA inhibition of U937 cell proliferation (U937 cells; 10 nM PMA with different concentrations of compound) | inhibition of U937 cell proliferation (U937 cells; listed as Bryostatin 1) | persistence of cell flattening (early morphological response) (LNCaP cells; LNCaP cells, 0-9 hrs after treatment) |
| --- | --- | --- | --- | --- | --- | --- |
| CCCCCCCCCCCCCC(=O)O[C@@H]1[C@@H](C)[C@@]2(O)[C@@H](C=C(CO)C[C@]3(O)C(=O)C(C)=C[C@@H]23)[C@@H]2C(C)(C)[C@]12OC(C)=O [PMA] | persisted for 5 hrs, with weak induction still evident at 8 hrs | inhibits cell proliferation | still evident at 6 hrs but reversing by 9 hrs |  |  |  |
| CCC/C=C/C=C/C(=O)O[C@H]1/C(=C/C(=O)OC)C[C@H]2C[C@H]([C@@H](C)O)OC(=O)C[C@H](O)C[C@@H]3C[C@H](OC(C)=O)C(C)(C)[C@](O)(C[C@@H]4C/C(=C/C(=O)OC)C[C@H](/C=C/C(C)(C)[C@]1(O)O2)O4)O3 [bryostatin 1] | largely lost by 5 hrs | not strongly antiproliferative |  | able to block the effect of PMA in a dose dependent manner | much less effect on either response | had reversed by 6 hrs after treatment |
